Measurements as given in patent US11173192B2 (priority 2016, dated 2021).
Where no end group is shown, it is not given here.

Columns and labels:
[1] = biological target: T1, binding of PCBP2 to ITCH E3 ligase (Homo sapiens, UniProt Q15366); test: GST precipitation of the PCBP2-ITCH interaction in the presence of EPRS; type: cell-based
T1 construct: FLAG-, Strep-, His-, or GST-tagged full-length and truncated PCBP2 were also prepared; expressed in transfected cells

MAVS [2] = conditions: 293T cells expressing EPRS, PCBP2, ITCH, Ub; MG-132
[3] = biological target: T2, interaction between PCBP2 and MAVS (Homo sapiens, UniProt Q15366); test: GST precipitation of the PCBP2-MAVS interaction in 293T cells with various amounts of EPRS; type: cell-based; conditions: 293T cells transfected with MAVS and PCBP2, various amounts of EPRS
T2 construct: FLAG-, Strep-, His-, or GST-tagged full-length and truncated PCBP2 were also prepared; expressed in transfected cells; host or cells: 293T
T2 sequence (Q15366 whole entry, the tested form may be a part): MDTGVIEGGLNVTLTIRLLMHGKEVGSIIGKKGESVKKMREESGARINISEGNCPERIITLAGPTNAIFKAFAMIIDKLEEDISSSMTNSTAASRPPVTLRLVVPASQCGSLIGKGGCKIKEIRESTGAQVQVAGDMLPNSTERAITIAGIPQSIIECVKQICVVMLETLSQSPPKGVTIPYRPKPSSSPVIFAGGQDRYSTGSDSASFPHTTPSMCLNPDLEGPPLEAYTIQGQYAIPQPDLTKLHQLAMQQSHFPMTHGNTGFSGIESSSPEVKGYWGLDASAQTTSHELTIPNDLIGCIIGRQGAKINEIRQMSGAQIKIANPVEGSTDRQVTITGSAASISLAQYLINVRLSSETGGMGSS

MAVS [4] = conditions: PCBP2-transfected 293T cells, various concentrations of EPRS
Protocol: For immunoblotting analysis, cells were lysed with RIPA buffer (20 mM Tris-HCl, pH 7.4, 150 mM NaCl, 1% NP-40, and 1 mM EDTA) containing a protease inhibitor cocktail and a phosphatase inhibitor cocktail (Roche). Whole cell lysates (50 μg to 100 μg) were subjected to SDS-PAGE, followed by immunoblotting with respective antibodies.

VSV = type: cell-based, vesicular stomatitis virus (VSV)
VSV-Indiana = system: VSV-Indiana; design: species or system mice; conditions: in vivo, iv
[5] = system: VSV-infected RAW264.7 cells; type: cell-based
RAW264.7 cells = test: MTS cytotoxicity assay, RAW264.7 cells; type: cell-based; conditions: various concentrations, 12 hours
Protocol: (§1) HEK293T or RAW264.7 cells were seeded in 96-well plates (10,000 per well) before treatment with Tat-Epep (20-200 μM) for 0-24 hours. Cytotoxicity was determined in a colorimetric assay using MTS [3-(4,5-dimethylthiazole-2-yl)-5-(carboxymethoxyphenyl)-2-(4-sulfophenyl)-2H-tetrazolium salt] (Promega) 20 μL of MTS was added to each well at 37° C. for 1 hour. Optical density at 490 nm was recorded using an automated microplate reader (BioTek). Background absorbance at 630 nm was subtracted from each sample reading.

293T cells = test: MTS cytotoxicity assay, 293T cells; type: cell-based; conditions: 12 or 24 hours
Protocol: as §1

PCBP2 KH1 (aa 11-82) = PCBP2 KH1 (aa 11-82) (Homo sapiens, UniProt Q15366); test: In vitro pull-down of purified EPRS domains with PCBP2 KH1; conditions: purified His-tagged EPRS domains, GST-fused PCBP2 KH1
Chain of PCBP2 KH1 (aa 11-82) (Q15366 11-82): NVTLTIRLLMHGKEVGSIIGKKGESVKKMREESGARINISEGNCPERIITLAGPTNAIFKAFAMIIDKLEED

PCBP2 = biological target: T3, PCBP2 (Homo sapiens, UniProt Q15366); test: Co-IP of EPRS or its fragments with PCBP2 in 293T cells; type: binding; conditions: 293T cells transfected with PCBP2 and EPRS plasmids
T3 construct: FLAG-, Strep-, His-, or GST-tagged full-length and truncated PCBP2 were also prepared; expressed in transfected cells; host or cells: 293T
T3 sequence (Q15366 whole entry, species assumed, the tested form may be a part): as the sequence (Q15366 whole entry, the tested form may be a part) above
Protocol: For immunoprecipitation, cell lysates were pre-cleared by incubation with protein A beads for 1 hour at 4° C. The pre-cleared cell lysates were incubated overnight at 4° C. with the respective antibodies, followed by incubation with 30 μL of protein A/G PLUS-agarose beads for 3 to 4 hours at 4° C. The immunoprecipitates were then collected and washed five times with a lysis buffer before immunoblotting analysis.

T1 sequence (Q15366 whole entry, the tested form may be a part): as above
T1 sequence (Q96J02 whole entry partner, the tested form may be a part): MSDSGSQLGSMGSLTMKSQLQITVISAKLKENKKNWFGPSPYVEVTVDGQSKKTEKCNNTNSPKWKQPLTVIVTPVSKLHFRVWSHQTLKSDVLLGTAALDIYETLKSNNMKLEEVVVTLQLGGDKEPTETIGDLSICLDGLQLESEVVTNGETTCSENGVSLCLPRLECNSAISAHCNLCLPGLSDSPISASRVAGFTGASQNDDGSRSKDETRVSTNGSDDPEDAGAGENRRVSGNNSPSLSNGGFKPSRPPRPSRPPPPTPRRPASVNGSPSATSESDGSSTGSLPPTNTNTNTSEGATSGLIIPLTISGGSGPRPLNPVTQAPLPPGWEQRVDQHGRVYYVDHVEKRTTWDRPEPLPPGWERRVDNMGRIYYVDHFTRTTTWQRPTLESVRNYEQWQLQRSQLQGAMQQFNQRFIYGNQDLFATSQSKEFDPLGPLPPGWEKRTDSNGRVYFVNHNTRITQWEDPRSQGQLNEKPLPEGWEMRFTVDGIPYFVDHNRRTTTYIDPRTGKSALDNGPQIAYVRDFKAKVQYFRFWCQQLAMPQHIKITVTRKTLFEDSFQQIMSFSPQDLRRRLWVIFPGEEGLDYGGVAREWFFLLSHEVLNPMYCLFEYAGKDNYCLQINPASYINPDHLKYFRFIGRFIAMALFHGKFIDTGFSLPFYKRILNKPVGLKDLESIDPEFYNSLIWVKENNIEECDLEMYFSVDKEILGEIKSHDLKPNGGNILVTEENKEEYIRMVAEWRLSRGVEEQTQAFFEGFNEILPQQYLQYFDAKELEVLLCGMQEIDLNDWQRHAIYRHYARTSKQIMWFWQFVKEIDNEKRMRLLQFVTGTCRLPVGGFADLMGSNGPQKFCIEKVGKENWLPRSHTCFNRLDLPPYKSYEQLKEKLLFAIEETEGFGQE

With “EPRS: glutamyl-prolyl-tRNA synthetase protein, 1512 aa, SEQ ID NO: 63; expressed from plasmid or purified” as the molecule, how does the “binding of PCBP2 to ITCH E3 ligase” value [1] read?
Its value is “did not disrupt the binding of PCBP2 to ITCH E3 ligase”.

And the “PCBP2-mediated ubiquitination of exogenous MAVS-FLAG” value (MAVS [2])?
Its value is “inhibited PCBP2-mediated ubiquitination of MAVS in a dose-dependent manner”.

What about the “endogenous ubiquitination of MAVS” value (MAVS [2]) of the same molecule?
The value was “significantly attenuated in the presence of EPRS”.

And the “interaction between PCBP2 and MAVS” value [3]?
Its value is “significantly reduced”.

What about the “PCBP2-induced degradation of endogenous MAVS” value (MAVS [4]) of the same molecule?
Its value is “rescued from this degradation”.

What about the “PCBP2-induced degradation of exogenous MAVS” value (MAVS [4]) of the same molecule?
The value was “rescued from this degradation”.

Which “viral replication (fluorescence images)” value (VSV) does the source give for “YGRKKRRQRRR-GG-KWDVSTTKARVAPEKKQDVGK (YGRKKRRQRRRGGKWDVSTTKARVAPEKKQDVGK; New Tat-Epep)” here?
Its value is “stronger inhibitory effect”.

What about the “VSV viral titers in mouse brains” value (VSV-Indiana) of the same molecule?
The value was “decrease VSV viral titers in the mouse brains”.

And the “increase in IFN-β secretion as compared with Tat-Epep” value [5]?
Its value is 2- to 3 fold.

And the “increase in IL-6 secretion as compared with Tat-Epep” value [5]?
Its value is 2- to 3 fold.

With “YGRKKRRQRRRGGDVSTTKARVAPEKKQDVGKFVELPGAEMG [Tat-Epep]” as the molecule, how does the “viability of RAW264.7 cells” value (RAW264.7 cells) read?
The value was “no effect on the viability”.

What about the “viability of 293T cells” value (293T cells) of the same molecule?
The value was “no effect on the viability”.

B1: EPRS (aa 1-196): N-terminal EPRS fragment containing GST-like domain and linker region L1 (protein)
chain: MATLSLTVNSGDPPLGALLAVEHVKDDVSISVEEGKENILHVSENVIFTDVNSILRYLARVATTAGLYGSNLMEHTEIDHWLEFSATKLSSCDSFTSTINELNHCLSLRTYLVGNSLSLADLCVWATLKGNAAWQEQLKQKKAPVHVKRWFGFLEAQQAFQSVGTKWDVSTTKARVAPEKKQDVGKFVELPGAEMG
For B1, which “direct interaction with PCBP2 KH1 (in vitro precipitation)” value (PCBP2 KH1 (aa 11-82)) is on record?
The value was “specifically interacted”.

And the “interaction with PCBP2 (co-IP)” value (PCBP2)?
The value was “crucial for the interaction with PCBP2”.
